According to patent US8008292B2, “Condensed benzamide compounds and inhibitors of vanilloid receptor subtype 1 (VR1) activity” (Japan Tobacco Inc., priority 2004, dated 2011):

Molecular target: T1, human VR1 (Homo sapiens, UniProt Q8NER1)
T1 construct: expressed in transfected cells
Assay: Inhibition of Ca2+ entry in cells caused by proton, in rat glioma (C6BU1) cells stably expressing human VR1 (Fura 2 fluorescence)
Type: cell-based
Settings: inhibition of proton-induced Ca2+ entry
Method in brief: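 Fura 2-loaded C6BU1 cells in 20 mM MES buffer pH 6.8 with added Ca2+ were preincubated 10 min with compound (final 1 μM to 0.1 nM, 1% DMSO). Proton stimulation brought pH to 5.5. Fluorescence rise was measured, and IC50 was derived from % inhibition versus DMSO control.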

T1 sequence (Q8NER1 whole entry): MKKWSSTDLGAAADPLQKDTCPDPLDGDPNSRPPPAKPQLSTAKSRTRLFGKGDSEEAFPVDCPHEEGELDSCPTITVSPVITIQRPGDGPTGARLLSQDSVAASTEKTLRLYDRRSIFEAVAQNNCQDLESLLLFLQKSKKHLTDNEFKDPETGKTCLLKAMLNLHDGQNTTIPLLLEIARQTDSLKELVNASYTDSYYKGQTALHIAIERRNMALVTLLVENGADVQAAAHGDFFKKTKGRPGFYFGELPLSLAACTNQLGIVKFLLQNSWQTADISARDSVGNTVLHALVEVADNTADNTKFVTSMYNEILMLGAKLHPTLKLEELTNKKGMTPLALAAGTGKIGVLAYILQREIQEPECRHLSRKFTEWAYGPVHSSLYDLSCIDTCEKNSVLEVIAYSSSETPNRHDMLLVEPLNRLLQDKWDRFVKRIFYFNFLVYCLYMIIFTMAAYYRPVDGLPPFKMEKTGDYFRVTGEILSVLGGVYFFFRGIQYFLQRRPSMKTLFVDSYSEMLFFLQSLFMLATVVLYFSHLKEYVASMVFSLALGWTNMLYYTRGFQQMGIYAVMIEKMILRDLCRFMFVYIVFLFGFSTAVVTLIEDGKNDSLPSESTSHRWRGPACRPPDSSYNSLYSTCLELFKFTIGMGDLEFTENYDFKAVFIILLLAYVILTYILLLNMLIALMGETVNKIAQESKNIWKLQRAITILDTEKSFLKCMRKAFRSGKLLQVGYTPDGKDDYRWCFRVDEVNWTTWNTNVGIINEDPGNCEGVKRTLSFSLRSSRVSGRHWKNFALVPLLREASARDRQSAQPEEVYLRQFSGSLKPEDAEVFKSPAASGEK

IC50 [nM] | SMILES
< 100 | CN(C)c1ccc(NC(=O)c2cccc3c2OC[C@H](CO)N3c2ncccc2Cl)cc1C(F)(F)F [Example 4-20]
< 100 | CC(C)Oc1ccc(NC(=O)c2cccc3c2OC[C@H](CO)N3c2ncccc2Cl)cc1C(F)(F)F [Example 4-21]
< 100 | O=C(Nc1ccc(N2CCCCC2)c(C(F)(F)F)c1)c1cccc2c1OC[C@H](CO)N2c1ncccc1Cl [Example 4-22]
< 100 | CCOc1ccc(NC(=O)c2cccc3c2OC[C@H](CO)N3c2ncccc2Cl)cc1F [Example 4-23]
< 100 | COc1ccc(NC(=O)c2cccc3c2OC[C@H](CO)N3c2ncccc2Cl)cc1C(F)(F)F [Example 4-24]
< 100 | COc1cnc(N2c3cccc(C(=O)Nc4ccc(C(F)(F)F)cc4)c3OC[C@@H]2CO)c(Cl)c1 [Example 4-25]
< 100 | COc1cnc(N2c3cccc(C(=O)Nc4ccc(OC(F)(F)F)cc4)c3OC[C@@H]2CO)c(Cl)c1 [Example 4-26]
< 100 | Cc1ccc(N2c3cccc(C(=O)Nc4ccc(C(F)(F)F)nc4)c3OC[C@@H]2CO)nc1 [Example 4-27]
< 100 | COc1ccc(NC(=O)c2cccc3c2OC[C@H](CO)N3c2ccc(C)cn2)cc1C(F)(F)F [Example 4-28]
< 100 | Cc1ccc(N2c3cccc(C(=O)Nc4ccc(N5CCOCC5)c(C(F)(F)F)c4)c3OC[C@@H]2CO)nc1 [Example 4-29]
< 100 | Cc1ccc(N2c3cccc(C(=O)Nc4ccc(C(F)(F)F)c(F)c4)c3OC[C@@H]2CO)nc1 [Example 4-30]
< 100 | Cc1ccc(N2c3cccc(C(=O)Nc4ccc(OC(F)(F)F)c(Cl)c4)c3OC[C@@H]2CO)nc1 [Example 4-31]
< 100 | Cc1ccc(N2c3cccc(C(=O)Nc4ccc(Cl)c(Cl)c4)c3OC[C@@H]2CO)nc1 [Example 4-32]
< 100 | CC(C)COc1ccc(NC(=O)c2cccc3c2OC[C@H](CO)N3c2ncccc2Cl)cc1C(F)(F)F [Example 4-33]
< 100 | O=C(Nc1ccc(Cl)c(Cl)c1)c1cccc2c1OC[C@H](CO)N2c1ncccc1Cl [Example 4-34]
< 100 | O=C(Nc1ccc(Cl)c(C(F)(F)F)c1)c1cccc2c1OC[C@H](CO)N2c1ncccc1Cl [Example 4-35]
< 100 | O=C(Nc1ccc(Br)c(F)c1)c1cccc2c1OC[C@H](CO)N2c1ncccc1Cl [Example 4-36]
< 100 | Cc1ccc(N2c3cccc(C(=O)Nc4ccc(Cl)c(C(F)(F)F)c4)c3OC[C@@H]2CO)nc1 [Example 4-37]
< 100 | Cc1ccc(N2c3cccc(C(=O)Nc4ccc(OC(C)C)c(C(F)(F)F)c4)c3OC[C@@H]2CO)nc1 [Example 4-38]
< 100 | O=C(Nc1ccc(N2CCOCC2)c(C(F)(F)F)c1)c1cccc2c1OC[C@H](CO)N2c1ncccc1Cl [Example 4-39]
< 100 | Cc1ccc(N2c3cccc(C(=O)Nc4ccc(C(F)(F)F)cc4Cl)c3OC[C@@H]2CO)nc1 [Example 4-40]
< 100 | Cc1cccnc1N1c2cccc(C(=O)Nc3ccc(OC(F)(F)F)cc3)c2OC[C@@H]1CO [Example 4-41]
< 100 | Cc1cccnc1N1c2cccc(C(=O)Nc3ccc(C(F)(F)F)cc3)c2OC[C@@H]1CO [Example 4-42]
< 100 | Cc1cccnc1N1c2cccc(C(=O)Nc3ccc(OC(C)(C)C)c(F)c3)c2OC[C@@H]1CO [Example 4-43]
< 100 | Cc1cccnc1N1c2cccc(C(=O)Nc3ccc(OCC(C)C)c(F)c3)c2OC[C@@H]1CO [Example 4-44]
< 100 | Cc1ccc(N2c3cccc(C(=O)Nc4ccc(OCC(C)C)c(C(F)(F)F)c4)c3OC[C@@H]2CO)nc1 [Example 4-45]
< 100 | Cc1ccc(N2c3cccc(C(=O)Nc4ccc(OC(C)C)c(F)c4)c3OC[C@@H]2CO)nc1 [Example 4-46]
< 100 | Cc1ccc(N2c3cccc(C(=O)Nc4ccc(N5CCOCC5)c(F)c4)c3OC[C@@H]2CO)nc1 [Example 4-47]
< 100 | Cc1ccc(N2c3cccc(C(=O)Nc4ccc(Cl)cc4)c3OC[C@@H]2CO)nc1 [Example 4-48]
